# Assay results reported in ChEMBL document CHEMBL1201862, “PubChem BioAssay data set” (2004).
#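 Method: 48-hour compound exposure of cells in 96-well plates, five concentrations, linear interpolation of endpoints. GI50: concentration for 50% inhibition of growth.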 Activity calls are given as the source filed them. Rule as the data show it: active = GI50 up to about 1.1 µM and inactive = higher.
# How the values were obtained:
# Experiment in all cases: DTP human tumour cell line panel, 48 h
# ACHN = test system: ACHN
# CAKI-1 = test system: CAKI-1
# EKVX = test system: EKVX
# HCC 2998 = test system: HCC 2998
# HCT-116 = test system: HCT-116
# HCT-15 = test system: HCT-15
# HOP-92 = test system: HOP-92
# HT-29 = test system: HT-29
# K562 = test system: K562
# NCI-H226 = test system: NCI-H226
# NCI-H522 = test system: NCI-H522
# OVCAR-3 = test system: OVCAR-3
# RXF 393 = test system: RXF 393
# SK-MEL-28 = test system: SK-MEL-28
# SK-MEL-5 = test system: SK-MEL-5
# SN12C = test system: SN12C
# SR = test system: SR
# UACC-257 = test system: UACC-257
# IGROV-1 = test system: IGROV-1
SMILES,GI50 (ACHN),GI50 (CAKI-1),GI50 (EKVX),GI50 (HCC 2998),GI50 (HCT-116),GI50 (HCT-15) [µM],GI50 (HOP-92),GI50 (HT-29),GI50 (K562),GI50 (NCI-H226),GI50 (NCI-H522),GI50 (OVCAR-3),GI50 (RXF 393),GI50 (SK-MEL-28),GI50 (SK-MEL-5),GI50 (SN12C),GI50 (SR),GI50 (UACC-257),GI50 (IGROV-1)
CC(C)(C)c1cc(C(OCCl)(C(F)(F)F)C(F)(F)F)c2c(c1)C(C(F)(F)F)(C(F)(F)F)OC21c2ccccc2C(=O)c2ccccc21,> 100 µM (inactive),> 100 µM (inactive),> 100 µM (inactive),> 100 µM (inactive),> 100 µM (inactive),> 100,< 0.01 µM (active),> 100 µM (inactive),> 100 µM (inactive),> 100 µM (inactive),> 100 µM (inactive),> 100 µM (inactive),> 100 µM (inactive),> 100 µM (inactive),> 100 µM (inactive),> 100 µM (inactive),> 100 µM (inactive),> 100 µM (inactive),
COc1ccc(C2[C@H]3C(=O)N(c4ccc(Cc5ccc(N6C(=O)[C@@H]7ON(c8ccccc8)C(c8ccc(OC)cc8)[C@@H]7C6=O)cc5)cc4)C(=O)[C@H]3ON2c2ccccc2)cc1 (stereo partly specified),> 100 µM (inactive),> 100 µM (inactive),> 100 µM (inactive),> 100 µM (inactive),> 100 µM (inactive),> 100,49.2 µM (inactive),> 100 µM (inactive),> 100 µM (inactive),> 100 µM (inactive),> 100 µM (inactive),> 100 µM (inactive),> 100 µM (inactive),> 100 µM (inactive),96.6 µM (inactive),> 100 µM (inactive),> 100 µM (inactive),> 100 µM (inactive),> 100 µM (inactive)
CCOC(=O)/C(=C\c1ccc[nH]1)C(=O)c1ccccc1,> 100 µM (inactive),> 100 µM (inactive),> 100 µM (inactive),> 100 µM (inactive),> 100 µM (inactive),> 100,22.6 µM (inactive),> 100 µM (inactive),35.2 µM (inactive),> 100 µM (inactive),> 100 µM (inactive),> 100 µM (inactive),38.2 µM (inactive),> 100 µM (inactive),> 100 µM (inactive),> 100 µM (inactive),25.8 µM (inactive),> 100 µM (inactive),
O=S(=O)(c1ccccc1)C1(C2(S(=O)(=O)c3ccccc3)CCN=N2)CCN=N1 (stereo unspecified),> 100 µM (inactive),> 100 µM (inactive),> 100 µM (inactive),> 100 µM (inactive),> 100 µM (inactive),> 100,,> 100 µM (inactive),> 100 µM (inactive),> 100 µM (inactive),> 100 µM (inactive),> 100 µM (inactive),> 100 µM (inactive),> 100 µM (inactive),,> 100 µM (inactive),> 100 µM (inactive),> 100 µM (inactive),> 100 µM (inactive)
CCOC(=O)NC(=O)c1cn(CCN2CCN(c3ncnc4[nH]cnc34)CC2)c(=O)[nH]c1=O,> 100 µM (inactive),,> 100 µM (inactive),> 100 µM (inactive),> 100 µM (inactive),> 100,10.6 µM (inactive),> 100 µM (inactive),> 100 µM (inactive),> 100 µM (inactive),> 100 µM (inactive),> 100 µM (inactive),> 100 µM (inactive),> 100 µM (inactive),> 100 µM (inactive),> 100 µM (inactive),> 100 µM (inactive),> 100 µM (inactive),> 100 µM (inactive)
c1ccc([P+](CCC[P+](c2ccccc2)(c2ccccc2)c2ccccc2)(c2ccccc2)c2ccccc2)cc1,> 100 µM (inactive),> 100 µM (inactive),> 100 µM (inactive),32.2 µM (inactive),20.1 µM (inactive),,20.1 µM (inactive),34.4 µM (inactive),8.2 µM (inactive),23.6 µM (inactive),19.5 µM (inactive),13.5 µM (inactive),64.4 µM (inactive),33.5 µM (inactive),20.2 µM (inactive),33.3 µM (inactive),45 µM (inactive),24 µM (inactive),41.7 µM (inactive)
C/C(=N\NC(=N)N)C(CN1CCCCC1)C(c1ccccc1)c1c(O)c2ccccc2oc1=O (stereo unspecified),> 100 µM (inactive),> 100 µM (inactive),> 100 µM (inactive),> 100 µM (inactive),> 100 µM (inactive),> 100,47.8 µM (inactive),> 100 µM (inactive),> 100 µM (inactive),> 100 µM (inactive),43.6 µM (inactive),> 100 µM (inactive),> 100 µM (inactive),> 100 µM (inactive),,> 100 µM (inactive),> 100 µM (inactive),> 100 µM (inactive),> 100 µM (inactive)
C[N+](C)(C)CC(=O)N/N=C(/Cc1nc2c3c(ccc2nc1O)C(=O)c1ccccc1C3=O)C(=O)Nc1ccc(Cl)c(Cl)c1,24 µM (inactive),15.5 µM (inactive),13.1 µM (inactive),76.9 µM (inactive),43.3 µM (inactive),,29.6 µM (inactive),> 100 µM (inactive),53.5 µM (inactive),,22.9 µM (inactive),30.2 µM (inactive),23.2 µM (inactive),> 100 µM (inactive),36.6 µM (inactive),86.9 µM (inactive),16 µM (inactive),> 100 µM (inactive),12.7 µM (inactive)
COC(=O)CCCN(C)c1nc(N)n[nH]1,> 100 µM (inactive),,> 100 µM (inactive),> 100 µM (inactive),> 100 µM (inactive),> 100,,> 100 µM (inactive),> 100 µM (inactive),> 100 µM (inactive),,> 100 µM (inactive),> 100 µM (inactive),> 100 µM (inactive),> 100 µM (inactive),> 100 µM (inactive),> 100 µM (inactive),> 100 µM (inactive),> 100 µM (inactive)
Clc1ncnc2c1ncn2CCCCCCCCCCCCn1cnc2c(Cl)ncnc21,14.5 µM (inactive),3.4 µM (inactive),16.7 µM (inactive),6.7 µM (inactive),10.7 µM (inactive),13.1,5.24 µM (inactive),9.82 µM (inactive),1.15 µM (inactive),11.7 µM (inactive),1.48 µM (inactive),11.2 µM (inactive),16.8 µM (inactive),2.6 µM (inactive),4.83 µM (inactive),18.6 µM (inactive),1.06 µM (active),2.86 µM (inactive),4.69 µM (inactive)
C/C(=C1/N=C(c2cc([N+](=O)[O-])ccc2Cl)N(c2cccc(C)c2)C1=O)c1cc2ccccc2oc1=O,48.8 µM (inactive),> 100 µM (inactive),> 100 µM (inactive),> 100 µM (inactive),47.4 µM (inactive),36.7,76.2 µM (inactive),58.5 µM (inactive),33.7 µM (inactive),43.6 µM (inactive),13.6 µM (inactive),28.3 µM (inactive),59.6 µM (inactive),> 100 µM (inactive),14 µM (inactive),> 100 µM (inactive),30.3 µM (inactive),17.3 µM (inactive),45.1 µM (inactive)
COC(=O)c1c(CC(=O)OC(C)C)cc2n(c1=O)Cc1c-2nc2ccccc2c1OC,> 100 µM (inactive),> 100 µM (inactive),> 100 µM (inactive),> 100 µM (inactive),> 100 µM (inactive),> 100,45.6 µM (inactive),> 100 µM (inactive),> 100 µM (inactive),99.1 µM (inactive),> 100 µM (inactive),> 100 µM (inactive),26.4 µM (inactive),> 100 µM (inactive),> 100 µM (inactive),> 100 µM (inactive),33.8 µM (inactive),> 100 µM (inactive),83.9 µM (inactive)
O=C(Cc1nc2ccccc2c(=O)n1-c1c(Cl)cccc1Cl)c1ccncc1,17.9 µM (inactive),23.6 µM (inactive),61.5 µM (inactive),22.5 µM (inactive),17.8 µM (inactive),24.7,13.8 µM (inactive),19.6 µM (inactive),26.7 µM (inactive),> 10 µM (inactive),19.6 µM (inactive),21.3 µM (inactive),18.5 µM (inactive),21.1 µM (inactive),15.9 µM (inactive),85.9 µM (inactive),17.8 µM (inactive),22.3 µM (inactive),22.4 µM (inactive)
Cn1c(=O)oc2cc(C3CCC(=O)N3Cc3ccc(Cl)cc3)ccc21 (stereo unspecified),> 100 µM (inactive),> 100 µM (inactive),> 100 µM (inactive),> 100 µM (inactive),> 100 µM (inactive),> 100,,> 100 µM (inactive),> 100 µM (inactive),> 100 µM (inactive),> 100 µM (inactive),,29.6 µM (inactive),> 100 µM (inactive),> 100 µM (inactive),> 100 µM (inactive),> 100 µM (inactive),> 100 µM (inactive),> 100 µM (inactive)
O=C(CCCCCCCCCCc1ccccc1)c1c(O)cccc1O,28.1 µM (inactive),29.5 µM (inactive),21.3 µM (inactive),19.4 µM (inactive),22.7 µM (inactive),20,23.5 µM (inactive),33 µM (inactive),21.4 µM (inactive),21.2 µM (inactive),21.4 µM (inactive),27 µM (inactive),19.4 µM (inactive),20 µM (inactive),16.1 µM (inactive),18.7 µM (inactive),25.2 µM (inactive),20.2 µM (inactive),26.5 µM (inactive)
